Experimental data taken from patent publication US9279105B2, “Enrichment of stem cells from adult tissues” (Board of Supervisors of Louisiana State University And …, priority 2009, dated 2016).

Assays:
Type in all cases: cell-based, rat
DFSCs [1] = experiment: 4-HC treatment of DFSCs for elimination of non-stem cells; conditions: 5-25 μM tested, 48 hours at 37° C., α-MEM with 20% FBS
Procedure: (§1) Establishment of cell cultures from rat dental follicle: Dental follicles (DF) were surgically removed from the first mandibular molars of Sprague Dawley rat pups at days 5-7 postnatally, and the isolated DF cells then suspended in MEM medium containing 10% newborn calf serum (NCS), 1 mM sodium pyruvate and antibiotics as previously described (Wise et al., 1992). Next, 5 ml of the cell suspension was transferred into a T-25 cell culture flask and incubated overnight to allow the cells to adhere. […]
We also tested an ALDH substrate, 4-hydroperoxycyclophosphamide (4-HC), for elimination of non-stem cells in culture. […] Putative stem cells surviving from a 4-HC treatment expressed a high level of multiple stem cell markers, including Abcb1, Prom1, Notch 1, and CD34, as determined by RT-PCR and western blotting. On the average, about a 2 to 4-fold increase in expression of these markers was detected in the 4-HC surviving cells as compared to the original population.

[2] = tested on: Abcb1, Prom1, Notch 1, and CD34; experiment: Stem cell marker expression in 4-HC surviving cells by RT-PCR and western blotting; conditions: 4-HC surviving cells compared to the original population; on the average
Procedure: We also tested an ALDH substrate, 4-hydroperoxycyclophosphamide (4-HC), for elimination of non-stem cells in culture. DFSCs were cultured as described above and then treated with 4-HC at the concentrations of 5, 10, 15, 20 and 25 μM in α-MEM medium containing 20% FBS for 48 hours at 37° C. The majority of the cells were killed at a 4-HC concentration greater than 15 μM. The surviving cells then were collected and subjected to cell proliferation, differentiation, and gene expression assays as described above for evaluation of stem cell properties. Putative stem cells surviving from a 4-HC treatment expressed a high level of multiple stem cell markers, including Abcb1, Prom1, Notch 1, and CD34, as determined by RT-PCR and western blotting. On the average, about a 2 to 4-fold increase in expression of these markers was detected in the 4-HC surviving cells as compared to the original population.

DFSCs [3] = experiment: Proliferation of cells surviving 4-HC treatment (flow cytometry analysis)
[4] = tested on: dental follicle cells (DFCs; non-stem cells); experiment: 4-HC treatment of dental follicle cells (non-stem cells); conditions: same 4-HC treatment protocol applied to DFCs
DFSCs [5] = experiment: Adipogenesis differentiation of cells surviving DOX, Oil Red O staining; conditions: cells that survived DOX for 4 hours; untreated control DFSCs formed only a few adipocytes
Procedure: To determine the differentiation capabilities of the putative stem cells, DFSCs were subjected to various differentiation procedures. For osteogenesis, cells were cultured for 2 weeks in medium consisting of DMEM-LG, 10% FBS, 50 μg/ml ascorbate-2 phosphate, 10^−8 M dexamethasone, and 10 mM β-glycerophosphate […] as previously described, followed by von Kossa and Alizarin Red staining to assess for mineral deposition (as described in Hung et al., 2002). For adipogenesis, DFSCs were cultured for 2 weeks in medium consisting of DMEM-LG, 10% FBS (Invitrogen Corporation, Carlsbad, Calif., USA), 50 μg/ml ascorbate-2 phosphate (Sigma-Aldrich), 10^−7 M dexamethasone, and 50 μg/ml indomethacin, with a medium change every 3 days (Hung et al., 2002). The cells then were stained with Oil red O to evaluate adipogenesis.
(§2) In another experiment to determine to enrich the populations of stem cells, DFSCs were treated with doxorubicin (DOX), a substrate of BCRP, at concentrations of 0.5, 1 or 2 μM for 1, 2, 4 and 6 hrs. The cells were incubated at 37° C. for the designated duration. […] The number of viable cells was counted in 5 to 10 randomly selected spots (1 mm^2 each) for calculation of the survival rate as the ratio of treatment/control. […]

DFSCs [6] = experiment: Doxorubicin treatment of DFSCs, count of viable cells (survival rate); conditions: DOX 1 μM, incubation increased from 2 to 4 to 6 hours, compared to control without DOX; FIG. 2
Procedure: as §1
as §2, with “hrs.” for “hrs. The cells were incubated at 37° C. for the designated duration.”

Row | Structure (SMILES) | 4-HC concentration at which the majority of the cells were killed (DFSCs [1]) | increase in expression of stem cell markers [2] [fold] | proliferation rate of putative stem cells surviving 4-HC (DFSCs [3]; flow cytometry, compared to original cell population not subjected to 4-HC) | effect of 4-HC treatment on proliferation of the cells (DFSCs [3]; surviving cells) | survival of cells [4] | adipocyte formation of surviving cells in adipogenesis induction medium (DFSCs [5]) | number of surviving cells (DFSCs [6])
1 | O=P1(N(CCCl)CCCl)NC(OO)CCO1 (stereo not shown) [4-HC, 4-hydroperoxycyclophosphamide] | greater than 15 μM | 2 to 4 | higher proliferation rate | did not adversely affect | none of them survived | – | –
2 | COc1cccc2c1C(=O)c1c(O)c3c(c(O)c1C2=O)C[C@@](O)(C(=O)CO)C[C@@H]3O[C@H]1C[C@H](N)[C@H](O)[C@H](C)O1 [DOX, doxorubicin] | – | – | – | – | – | majority of the cells forming Oil Red O positive adipocytes | decreasing
